Legend:
[1] = system: Ng strains 1291 and (MDR) WHO-M; experiment: Modified gentamicin survival assay, drug added to established Ng infection of PEX cells; assay type: cell-based, Neisseria gonorrhoeae
Experimental: Modified gentamicin survival assays were performed in which pex cells were challenged with our preferred laboratory Ng strain, 1291, or the MDR Ng strain, WHO-M (beta-lactam-, ciprofloxacin-, and rifampicin-resistant; plus a mtrR mutation that could effect resistance to other compounds (35)). Infections were allowed to proceed for 90 min to allow Ng to adhere to and invade PEX cells. Vehicle control, AR-12, ceftriaxone, or gentamicin was then added to established infections.
At the indicated times post-challenge, the infection medium was removed, the PEX cell monolayers were rinsed and lysed, and viable Ng were enumerated by counting CFUs after plating serial dilutions of the PEX cell lysates. The percentage of Ng that survived the test treatment was determined as a function of the infection inoculum. In this aspect, the units are colony forming units—percent survival calculated as: [(#CFU (x dilution factor)) divided by (number of bacteria used as the infection inoculum (˜typically 1×10^7 bacteria per ml))×100]. A significant reduction (at least about 300 fold) in viable Ng was observed following a 3-hour incubation with 10 μM AR-12 (FIG. 2A).
Concentrations of AR-12 tested are shown on the x-axis. “None” refers to vehicle control.

[2] = system: Ng; experiment: Antimicrobial disk diffusion assays; design: species or system Neisseria gonorrhoeae; conditions: no human cells
Excerpt: This effect was specific to infection of human cells in that AR-12 was not effective against the Ng by antimicrobial disk diffusion assays, which prohibit Ng growth on agar plates.

[3] = Phase I oncology study of AR-12; assay type: in vivo, human
Excerpt: AR-12 was originally investigated in a Phase I oncology study (27), an IND (IND #103799) was previously filed with the Food and Drug Administration (FDA), and an Investigational Medicinal Product Dossier (IMPD) was filed with the Medicines and Healthcare Products Regulatory Agency (MHRA Reference: 35725/0001/001-0001 [EudraCT Number: 2009-014285-25]) in the United Kingdom, which enabled the Phase I study entitled: “A Phase I Study of AR-12 (2-Amino-N-[4-[5-(2-phenanthrenyl)-3-(trifluoromethyl)-1H-pyrazol-1-yl]phenyl]-acetamide) in Adult Patients With Advanced or Recurrent Solid Tumors or Lymphoma, for Which No Standard Therapy Is Available”. […] Thirty-five patients were enrolled at nine dose levels. With the original formulation tested, the recommended oncology Phase II dose was 800 mg twice daily.
The half-life in humans is long and is estimated to be approximately 60 hours. […] This is a favorable property for the treatment of Ng, which is, with rare exception, a mucosal pathogen. AR-12 is slowly released from the tissue back into the bloodstream and slowly excreted, which explains its long half-life.

[4] = Stability at ambient conditions (cGMP material); assay type: physicochemical
Excerpt: AR-12 was initially developed by Arno Therapeutics (Arno) in 2008 for an oncology indication. In support of this oncology program, Arno initiated an Investigational New Drug (IND) enabling toxicology program, which included standard Good Laboratory Practice (GLP) tests (e. g. genotoxicity), a battery of safety pharmacology studies, and 28-day general toxicity assessments performed in rats and dogs. Before Arno's involvement, the National Cancer Institute had generated preclinical ADME (i. e., absorption, distribution, metabolism, and excretion) and toxicology data in the mouse model as part of the Rapid Access to Intervention Development (RAID) program. AR-12 synthesis was optimized and scaled-up to approximately 50 kg (purity >99.5%; stability ≥24 months at ambient conditions) under Current Good Manufacturing Practices (cGMP) conditions in anticipation of continued clinical development in the oncology setting.

[5] = preclinical studies (ref. 36); cited from earlier work
[6] = system: Ng invasion of and survival within PEX cells; experiment: Gentamicin-survival assays: Ng invasion of and survival within PEX cells with estradiol, progesterone, Akt inhibitor; assay type: cell-based, Neisseria gonorrhoeae
Experimental: Progesterone (Pg) augments gonococcal invasion of and survival within PEX cells. […] Therefore, to more closely mimic the luteal phase of the menses cycle, when Pg concentrations fluctuate between 3 nM and 30 nM, the effect of Pg on Ng invasion of and survival within PEX cells was evaluated using a gentamicin-survival assays with 0.4 nM of estradiol (E2) and variable concentrations of Pg (FIG. 1)
Further studies were conducted to determine if Pg augmented the ability of gonococci to survive intracellularly within PEX cells. Following gentamicin treatment (to kill extracellular bacteria), infected cell monolayers were either lysed (releasing the invasive Ng) and serial dilutions were plated, or they were re-incubated in antibiotic free medium for 1 or 3 hours longer before plating the PEX cell lysate and quantitating colony forming units. Akt inhibitor VII was included or omitted from these experiments.

[7] = by 24 hours post-AR-12 treatment

Structure (SMILES) | reduction in viable Ng ([1]; 10 μM AR-12, 3-hour incubation, Ng-infected PEX cells (FIG. 2A)) | viable Ng recovered ([1]; 10 μM AR-12, 24 h (FIG. 2C)) | reduction of the amount of viable Ng (CFU) compared to an untreated infection ([1]; 10 μM AR-12, after about 6 hours (FIG. 2E)) | reduction of the amount of viable Ng (CFU) compared to an untreated infection ([1]; 10 μM AR-12, after about 24 hours (FIG. 2E)) | reduction in the number of viable Ng ([1]; AR-12 treatment 6 h, Ng-infected PEX cells (FIG. 2B)) | killing of Ng (bactericidal effect) [1, 7] [%] | spontaneous resistance to AR-12 [1, 7] | effectiveness against Ng on agar plates [2] | dose limiting toxicities (DLT) ([3]; doses appropriate in the oncology setting, human) | half-life ([3]; human, blood, oral dosage form, Phase I study, estimated, read-out: half-life in humans (converted)) [h] | safety profile ([3]; long-term oral exposures up to 33 weeks, phase I study) | recommended oncology Phase II dose ([3]; original formulation, human) [mg twice daily] | stability [4] [months] | accumulation in tissues relative to blood level concentrations [5] | blood brain barrier penetration [5] | gonococcal invasion of PEX cells ([6]; 0.4 nM estradiol, variable concentrations of Pg (FIG. 1A)) | ability of gonococci to invade, as well as survive within, PEX cells ([6]; presence of Pg, 1 or 3 hours post-invasion (FIG. 1B))
NCC(=O)Nc1ccc(-n2nc(C(F)(F)F)cc2-c2ccc3c(ccc4ccccc43)c2)cc1 [AR-12, 2-amino-N-(4-(5-(phenanthren-2-yl)-3-(trifluoromethyl)-1H-pyrazol-1-yl)phenyl)acetamide] | at least 300 fold | no viable Ng were recovered | at least 3 log | at least 7 log | at least 600 fold | 100 | no spontaneous resistance | not effective | fatigue, dizziness, and skin rash | ~60 | acceptable safety profile | 800 | ≥ 24 | exceeding the blood level concentrations several fold | rapid blood brain barrier penetration |  | 
CC(=O)[C@H]1CC[C@H]2[C@@H]3CCC4=CC(=O)CC[C@]4(C)[C@H]3CC[C@]12C [Pg, Progesterone] |  |  |  |  |  |  |  |  |  |  |  |  |  |  |  | increased with increasing concentrations of Pg | enhanced
